Here are results for 10 molecules from PubChem BioAssay (NCI).

Where “and” joins values, the source holds several entries; their conditions need not be identical. Equal entries are not always repeated.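 Five concentrations, 48 hours, 96-well plates. Abbreviation: GI50, concentration required for 50% inhibition of growth. Definition used: TGI = concentration required for complete inhibition of growth.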 Some results are limits rather than exact numbers.

Holding throughout (experiment): NCI tumour cell line growth inhibition, 48 h
Experiment [1] has as its system IGROV1 ovarian.
The test system of experiment [2] is MALME-3M melanoma.
Experiment [3] deals with NCI-H23 lung.
Experiment [4] deals with NCI-H460 lung.
In experiment [5] the test system is OVCAR-5 ovarian.
The subject of experiment [6] is SF-268 CNS.
Experiment [7] has as its system SK-MEL-28 melanoma.
The test system of experiment [8] is SNB-19 CNS.
The test system of experiment [9] is U251 CNS.
Experiment [10] concerns UACC-62 melanoma.

Consider `ClCc1cccc(Cn2cnc3nc(Cl)nc(Cl)c32)c1`, for which the GI50 is 4450 nM in [1]; 6150 nM in [2]; 1290 nM in [3]; 1720 nM in experiment [4]; 1630 nM in experiment [5]; 1380 nM in experiment [6]. Also, the GI50 was 503 nM in experiment [7], 1320 nM in experiment [8], 1100 nM in experiment [9] and 1020 nM in experiment [10]. For the same molecule, the TGI in [1] amounted to 8.92 µM; in [2], 13 µM; in [3], 2.56 µM; in experiment [4], 3.09 µM; in experiment [5], 3.31 µM; in experiment [6], 3.83 µM. Besides, the TGI in experiment [7] came to 1.13 µM; in experiment [8], 2.69 µM; in experiment [9], 2.38 µM; in experiment [10] it was 2.22 µM.

`CCCSc1nc(COC(=O)NC)c(COC(=O)NC)n1C`: the TGI in experiment [1], in experiment [2], in [3], in [4], in experiment [5] and in [6] was over 100 µM throughout. In addition, the TGI in experiment [7], in experiment [8], in [9] and in experiment [10] was over 100 µM throughout. Also, the GI50 in [6] is 44400 nM and > 100000 nM.

Turning to `Cc1c(C(=O)/C=C/c2ccccc2)[n+](=O)c2ccccc2n1[O-]`, the TGI in experiment [1] came to 45.2 µM; in experiment [2], 33.6 µM; in experiment [3] it was 29.5 µM; in [4], 35.6 µM; in [5] it was 30.7 µM; in experiment [6], 40.1 µM. Also, the TGI in experiment [7] amounted to 31 µM; in experiment [8] it was 31.8 µM; in experiment [9] it was 29.7 µM; in [10], 28.6 µM.

For `COc1cc(C(=O)c2cc(C)c3[nH]c4ccc(C)cc4c3c2C)cc(OC)c1OC`, the GI50 in experiment [1] was under 10 nM; in experiment [2] it was under 10 nM; in [3], under 10 nM; in experiment [4], under 10 nM; in experiment [5], under 10 nM; in [6], under 18.6 nM. Besides, the GI50 in experiment [7] was 1640 nM; in [8], under 10 nM; in [9], under 10 nM; in experiment [10] it was under 10 nM. Further, the TGI in experiment [2], in [3], in experiment [4], in experiment [5], in experiment [6] and in [7] was over 100 µM throughout. Also, the TGI is over 100 µM in experiment [8], over 27.1 µM in experiment [9] and over 100 µM in [10].

Turning to `CC1(C)[C@@H](OC(N)=O)[C@H]2O[C@H]2[C@]2(C=O)[C@H]3CC[C@]4(C)[C@@H](c5ccc(=O)oc5)[C@@H](Cl)C[C@]4(O)C3=CC[C@@H]12`, the GI50 in [1] was 8.36 nM; in [2] it was 6.29 nM; in experiment [3] it was 3.79 nM; in experiment [4], 3.47 nM; in experiment [5] it was 6.06 nM; in experiment [6] it was 3.7 nM. Also, the GI50 in [7] was 7.94 nM; in [8], 7.96 nM; in [9] it was 4.84 nM; in [10], 6.14 nM. Moreover, the TGI was 0.0362 µM in experiment [1]; 0.0138 µM in experiment [2]; 0.0111 µM in experiment [3]; 0.0077 µM in experiment [4]; 0.0151 µM in [5]; 0.00749 µM in experiment [6]. The TGI is 0.0268 µM in [7], 0.0219 µM in [8], 0.00952 µM in [9] and 0.0172 µM in experiment [10].

Regarding `C=CC/C=C/C/C=C/CCCCCCCc1cccc(O)c1C(=O)O`, the TGI is over 100 µM in [1]; over 100 µM in [2]; 75.9 µM in [3]; over 100 µM in [4]; over 100 µM in experiment [5]; 80.8 µM in experiment [6]. Besides, the TGI in experiment [7] is 89.6 µM; in experiment [8], over 100 µM; in [9] it was 46 µM; in [10], over 100 µM.

For `O=C1[C@@H]2C(c3ccccc3F)=NO[C@@H]2C(=O)N1c1ccc(Cc2ccc(N3C(=O)[C@H]4C(c5ccccc5F)=NO[C@H]4C3=O)cc2)cc1`, the TGI in [1], in experiment [2], in [3], in experiment [4], in experiment [5] and in experiment [6] was over 100 µM in each case. Further, the TGI in [7], in [8], in experiment [9] and in [10] was over 100 µM in each case.

For `COc1ccc(CC2NCCc3cc(OC)c(OC)cc32)cc1Br` (stereo not given), the TGI is over 100 µM in [1]; 34.3 µM in [2]; 85.7 µM in experiment [3]; over 71.4 µM in experiment [4]; over 77.7 µM in experiment [5]; over 100 µM in [6]. In addition, the TGI in [7] was 33.7 µM; in experiment [8], over 100 µM; in experiment [9], over 100 µM; in experiment [10], over 77.5 µM.

For `ClCC[N+]12CC[N+](CCCl)(CC1)C2`, the TGI in experiment [1], in experiment [2], in experiment [3], in experiment [4], in [5] and in experiment [6] was over 100 µM each time. In addition, the TGI in [7], in [8], in experiment [9] and in experiment [10] was over 100 µM throughout.

For `CSC(C1c2ccccc2N(c2ccc(C)cc2)c2[nH]c(=O)n(C)c(=O)c21)S(=O)(=O)c1ccc(C)cc1` (stereo not given), the TGI in experiment [1], in experiment [2], in experiment [3], in [4], in experiment [5] and in experiment [6] was over 100 µM each time. The TGI in experiment [7], in [8], in experiment [9] and in experiment [10] was over 100 µM each time.
